Where two headings read alike, the source gives them in different places.
Key:
Format in all cases: physicochemical
[1] = Dynamic vapour sorption (sorption isotherms, water uptake); conditions: for hygroscopic behavior: uptake of water: 25° C.
Excerpt: Sorption isotherms were generated using an IGAsorp water sorption monitor from Hiden Isochema. […] For BR salt form only: Sorption isotherms were registered on a DVS-1 water sorption monitor from Surface Measurement Systems.

[2] = ThermoGravimetry (loss on drying); conditions: TG
Excerpt: Thermal gravimetry data were collected with a TG instrument from the Q-series of TA Instruments. This method measures weight changes in a material as a function of temperature under a controlled atmosphere.

[3] = X-ray powder diffraction: crystallinity and polymorphism; conditions: for indications for polymorphism: several crystallization experiments
Excerpt: X-ray powder diagrams were generated using a STOE-STADI P-diffractometer in transmission mode fitted with a MYTHEN-detector and a Cu-anode as X-ray source with monochromatic CuKα1 radiation (λ=1.54056 Å, 40 kV, 40 mA).

Structure (SMILES): CO[C@H]1COCC[C@H]1NC1CCN(C(=O)c2ncnc(NC[C@H]3CCC[C@@H](c4ccc(C)cc4)O3)c2C)CC1.Cl [hydrochloride salt of compound I, (4-((3R,4R)-3-methoxytetrahydro-pyran-4-ylamino)piperidin-1-yl)(5-methyl-6-(((2R,6S)-6-(p-tolyl)tetrahydro-2H-pyran-2-yl)methylamino)pyrimidin-4-yl)methanone hydrochloride]
- hygroscopic behavior: uptake of water ([1]; up to 80% r.h. (humidity range 10-80%), hydrochloride): 15%
- hygroscopic behavior: uptake of water ([1]; up to 80% r.h. (humidity range 10-80%), listed as Hydrochloride Salt, hydrochloride): 15% uptake
- hygroscopic behavior: deliquescence ([1]; up to 80% r.h., listed as Hydrochloride Salt, hydrochloride): deliquescent
- hygroscopic behavior: deliquescence ([1]; up to 80% r.h., listed as hydrochloride, hydrochloride): irreversibly deliquescent
- hygroscopic behavior: deliquescence ([1]; up to 90% r.h.): deliquescent
- hygroscopic behavior: uptake of water ([1]; up to 90% r.h.): 40% uptake
- loss on drying [2]: 2.8%
- crystallinity ([3]; hydrochloride): medium
- crystallinity ([3]; listed as hydrochloride salt of compound of formula (I), hydrochloride): medium crystallinity
- indications for polymorphism ([3]; listed as Hydrochloride Salt, hydrochloride): yes
- indications for polymorphism ([3]; listed as hydrochloride, hydrochloride): Different polymorphic modifications

Structure (SMILES): Br.CO[C@H]1COCC[C@H]1NC1CCN(C(=O)c2ncnc(NC[C@H]3CCC[C@@H](c4ccc(C)cc4)O3)c2C)CC1 [hydrobromide salt of compound I, (4-((3R,4R)-3-methoxytetrahydro-pyran-4-ylamino)piperidin-1-yl)(5-methyl-6-(((2R,6S)-6-(p-tolyl)tetrahydro-2H-pyran-2-yl)methylamino)pyrimidin-4-yl)methanone hydrobromide]
- hygroscopic behavior: uptake of water ([1]; up to 80% r.h. (humidity range 10-80%), hydrobromide): 4.5%
- hygroscopic behavior: uptake of water ([1]; up to 80% r.h. (humidity range 10-80%), listed as Hydrobromide Salt, hydrobromide): 4.5%
- hygroscopic behavior: deliquescence ([1]; up to 80% r.h., listed as Hydrobromide Salt, hydrobromide): deli-
- hygroscopic behavior: deliquescence ([1]; up to 80% r.h., listed as hydrobromide, hydrobromide): irreversibly deliquescent
- hygroscopic behavior: deliquescence ([1]; up to 90% r.h.): deli-
- hygroscopic behavior: uptake of water ([1]; up to 90% r.h.): 20%
- loss on drying [2]: 2.9%
- crystallinity ([3]; hydrobromide): medium
- crystallinity ([3]; listed as hydrobromide salt of compound of formula (I), hydrobromide): medium crystallinity
- indications for polymorphism ([3]; listed as Hydrobromide Salt, hydrobromide): Yes
- indications for polymorphism ([3]; listed as hydrobromide, hydrobromide): Different polymorphic modifications

Structure (SMILES): CO[C@H]1COCC[C@H]1NC1CCN(C(=O)c2ncnc(NC[C@H]3CCC[C@@H](c4ccc(C)cc4)O3)c2C)CC1.CS(=O)(=O)O [methanesulfonate salt of compound I, (4-((3R,4R)-3-methoxytetrahydro-pyran-4-ylamino)piperidin-1-yl)(5-methyl-6-(((2R,6S)-6-(p-tolyl)tetrahydro-2H-pyran-2-yl)methylamino)pyrimidin-4-yl)methanone methanesulfonate]
- hygroscopic behavior: deliquescence ([1]; up to 80% r.h.): irreversibly deliquescent
- hygroscopic behavior: uptake of water ([1]; up to 80% r.h. (humidity range 10-80%), listed as Methanesulfonate Salt, methanesulfonate): 30%
- hygroscopic behavior: uptake of water ([1]; up to 80% r.h. (humidity range 10-80%), methanesulfonate): 30%
- hygroscopic behavior: uptake of water ([1]; up to 90% r.h.): 45%
- crystallinity ([3]; listed as methanesulfonate salt of compound of formula (I), methanesulfonate): medium crystallinity
- crystallinity ([3]; methanesulfonate): Medium
- indications for polymorphism ([3]; listed as Methanesulfonate Salt, methanesulfonate): No
- indications for polymorphism ([3]; listed as methanesulfonate, methanesulfonate): only one polymorphic form

Structure (SMILES): CCS(=O)(=O)O.CO[C@H]1COCC[C@H]1NC1CCN(C(=O)c2ncnc(NC[C@H]3CCC[C@@H](c4ccc(C)cc4)O3)c2C)CC1 [esilate salt of compound I, (4-((3R,4R)-3-methoxytetrahydro-pyran-4-ylamino)piperidin-1-yl)(5-methyl-6-(((2R,6S)-6-(p-tolyl)tetrahydro-2H-pyran-2-yl)methylamino)pyrimidin-4-yl)methanone esilate]
- hygroscopic behavior: uptake of water ([1]; up to 80% r.h. (humidity range 10-80%)): 20%
- hygroscopic behavior: uptake of water ([1]; up to 80% r.h. (humidity range 10-80%), listed as Esilate Salt): 20% uptake
- hygroscopic behavior: deliquescence ([1]; up to 80% r.h., listed as Esilate Salt): deliquescent
- hygroscopic behavior: deliquescence ([1]; up to 80% r.h., listed as esilate): irreversibly deliquescent
- hygroscopic behavior: deliquescence ([1]; up to 90% r.h.): deliquescent
- hygroscopic behavior: uptake of water ([1]; up to 90% r.h.): 45% uptake
- loss on drying [2]: 2.4%
- crystallinity [3]: high
- crystallinity ([3]; listed as esilate salt of compound of formula (I)): high crystallinity
- indications for polymorphism ([3]; listed as Esilate Salt): no
- indications for polymorphism ([3]; listed as esilate): only one polymorphic form
